The values that follow come from ChEMBL document CHEMBL1201862, “PubChem BioAssay data set” (2004).

Calls of active or inactive are those of the source.

Test [1] deals with Nuclear receptor subfamily 5 group A member 2 (Homo sapiens, UniProt O00482). It is filed as functional, cell-based.
Test [2] is described as follows: nonselective StAR promoter luciferase inhibitors – cell-based, luminescence, luciferase reporter, counter-screen for LRH-1 inverse agonist project, dose response (AID 651969). The format is functional.
Another test addresses Steroidogenic factor 1 (Homo sapiens, UniProt Q13285). As to the kind of experiment: Counterscreen for inverse agonists of the liver receptor homolog-1 (LRH-1; NR5A2): Luminescence-based cell-based high throughput dose response assay to identify inverse agonists of the Steroidogenic Factor 1 Nuclear Receptor (SF1; NR5A1). It is filed as functional. Background: The purpose of a counterscreen is to sort out artefacts and off-target activity.

Test [3] deals with T1, Corticotropin-releasing factor receptor 2/Corticotropin-releasing factor-binding protein (Homo sapiens, UniProt P24387+Q13324).
T1 sequence (Q13324 whole entry): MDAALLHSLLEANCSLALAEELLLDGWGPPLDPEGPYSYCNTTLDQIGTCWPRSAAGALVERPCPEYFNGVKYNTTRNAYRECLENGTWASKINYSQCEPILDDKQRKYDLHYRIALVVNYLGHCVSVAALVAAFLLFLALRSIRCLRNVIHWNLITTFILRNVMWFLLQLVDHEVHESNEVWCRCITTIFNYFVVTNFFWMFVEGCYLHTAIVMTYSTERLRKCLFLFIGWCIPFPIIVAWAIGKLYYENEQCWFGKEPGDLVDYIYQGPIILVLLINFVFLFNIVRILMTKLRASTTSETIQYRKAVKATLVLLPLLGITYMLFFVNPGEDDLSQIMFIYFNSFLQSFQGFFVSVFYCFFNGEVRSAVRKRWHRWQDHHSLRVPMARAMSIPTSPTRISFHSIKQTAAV
T1 sequence (P24387 whole entry): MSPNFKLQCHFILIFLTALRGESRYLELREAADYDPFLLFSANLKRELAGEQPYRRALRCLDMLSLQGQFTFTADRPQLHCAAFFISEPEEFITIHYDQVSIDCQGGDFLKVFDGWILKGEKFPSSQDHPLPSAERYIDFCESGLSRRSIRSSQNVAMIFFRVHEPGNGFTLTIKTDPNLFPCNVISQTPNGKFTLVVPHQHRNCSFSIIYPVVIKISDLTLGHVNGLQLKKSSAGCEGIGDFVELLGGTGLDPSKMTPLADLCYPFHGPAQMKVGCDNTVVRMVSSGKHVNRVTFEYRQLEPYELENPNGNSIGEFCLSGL
Nature of the test: activators of CRF receptor 2 with binding protein – uHTS hits, confirmation (AID 602473). It is filed as functional. Conditions: read-out: EC50_Mean.

Test [4] is described as follows: blockers of CRF-binding protein–CRF-R2 complex – cell-based, uHTS hits, 384-well, dose response (AID 651639). The format is functional, Homo sapiens. Conditions: read-out: IC50_Mean.
Test [5] has as its target T2, Short transient receptor potential channel 4 (Mus musculus, UniProt Q9QUQ5).
T2 sequence (Q9QUQ5 whole entry): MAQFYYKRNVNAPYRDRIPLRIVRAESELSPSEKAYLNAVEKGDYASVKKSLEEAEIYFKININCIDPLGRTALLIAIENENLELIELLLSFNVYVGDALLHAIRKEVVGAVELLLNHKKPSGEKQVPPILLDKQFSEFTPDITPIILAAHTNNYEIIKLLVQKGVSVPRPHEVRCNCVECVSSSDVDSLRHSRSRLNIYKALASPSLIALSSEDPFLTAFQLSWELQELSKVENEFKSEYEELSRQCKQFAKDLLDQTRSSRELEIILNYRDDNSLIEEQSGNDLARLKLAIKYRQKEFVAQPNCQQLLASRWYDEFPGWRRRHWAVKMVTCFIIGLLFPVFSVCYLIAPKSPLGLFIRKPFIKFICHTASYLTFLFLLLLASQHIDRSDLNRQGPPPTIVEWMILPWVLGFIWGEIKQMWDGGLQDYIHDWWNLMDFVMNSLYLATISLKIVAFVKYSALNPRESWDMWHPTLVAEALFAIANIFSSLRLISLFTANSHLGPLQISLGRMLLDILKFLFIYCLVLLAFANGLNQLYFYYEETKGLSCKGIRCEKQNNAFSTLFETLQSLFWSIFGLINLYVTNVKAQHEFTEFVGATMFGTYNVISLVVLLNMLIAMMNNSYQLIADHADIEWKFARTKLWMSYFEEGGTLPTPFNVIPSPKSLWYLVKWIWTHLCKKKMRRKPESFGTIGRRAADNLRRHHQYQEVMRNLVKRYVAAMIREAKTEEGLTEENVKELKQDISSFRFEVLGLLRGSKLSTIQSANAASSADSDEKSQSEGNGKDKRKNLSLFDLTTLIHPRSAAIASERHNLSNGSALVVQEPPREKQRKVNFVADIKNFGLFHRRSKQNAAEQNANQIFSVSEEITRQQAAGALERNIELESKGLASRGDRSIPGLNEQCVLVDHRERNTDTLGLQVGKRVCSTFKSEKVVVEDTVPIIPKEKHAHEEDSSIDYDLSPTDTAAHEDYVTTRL
Nature of the test: block of DAMGO-driven TRPC4 calcium entry – cell-based, HEK293 TRPC4/mu-opioid, Fluo-4 calcium, dose response (AID 434942).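 Further: potency of inhibitors blocking the TRPC4 calcium response.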 It is filed as functional.

In test [6] the target is T1, Corticotropin-releasing factor receptor 2/Corticotropin-releasing factor-binding protein. As to the kind of experiment: Dose Response confirmation of uHTS hits for small molecule antagonists of the CRF-binding protein and CRF-R2 receptor complex. It is filed as functional. Particulars: read-out: IC50_Mean.
In test [7] the target is T3, Probable nicotinate-nucleotide adenylyltransferase (Staphylococcus aureus (strain N315), UniProt P65502). It is filed as functional, Staphylococcus aureus subsp. aureus N315. Conditions: read-out: IC50_Mean.
T3 sequence (P65502 whole entry): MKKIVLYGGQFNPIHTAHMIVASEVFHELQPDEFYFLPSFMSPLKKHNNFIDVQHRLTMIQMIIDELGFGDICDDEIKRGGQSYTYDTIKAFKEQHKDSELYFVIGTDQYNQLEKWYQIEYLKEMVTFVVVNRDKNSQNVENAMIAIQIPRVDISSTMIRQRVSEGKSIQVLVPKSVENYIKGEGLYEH
Test [8] deals with T3, Probable nicotinate-nucleotide adenylyltransferase. The format is functional, Staphylococcus aureus subsp. aureus N315.
For test [9], the target named is T4, Low molecular weight phosphotyrosine protein phosphatase (Homo sapiens, UniProt P24666).
T4 sequence (P24666 whole entry): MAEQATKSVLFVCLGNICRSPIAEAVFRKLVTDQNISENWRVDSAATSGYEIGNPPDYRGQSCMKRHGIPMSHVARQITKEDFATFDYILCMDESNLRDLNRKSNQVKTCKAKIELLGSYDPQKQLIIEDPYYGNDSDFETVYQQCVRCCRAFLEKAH
It is filed as functional. Particulars: read-out: IC50_Mean.

In test [10] the target is T4, Low molecular weight phosphotyrosine protein phosphatase. The format is functional. Particulars: read-out: IC50_Mean. This is another data set of the same source.
Test [11] deals with Photoreceptor-specific nuclear receptor (Homo sapiens, UniProt Q9Y5X4). The format is functional, cell-based.
Photoreceptor-specific nuclear receptor, sequence (Q9Y5X4 whole entry): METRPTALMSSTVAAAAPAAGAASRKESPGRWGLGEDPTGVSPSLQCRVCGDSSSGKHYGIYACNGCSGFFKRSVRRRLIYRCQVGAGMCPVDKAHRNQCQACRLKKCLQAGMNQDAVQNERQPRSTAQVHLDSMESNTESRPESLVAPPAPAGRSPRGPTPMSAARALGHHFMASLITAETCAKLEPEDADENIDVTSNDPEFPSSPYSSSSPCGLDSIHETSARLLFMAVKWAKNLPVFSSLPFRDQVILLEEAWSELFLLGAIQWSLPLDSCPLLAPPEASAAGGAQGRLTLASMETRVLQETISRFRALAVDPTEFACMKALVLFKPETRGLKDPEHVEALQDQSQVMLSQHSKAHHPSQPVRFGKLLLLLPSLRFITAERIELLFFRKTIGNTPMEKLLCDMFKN
Test [12] has as its target T5, ATP-dependent translocase ABCB1 (Homo sapiens, UniProt P08183). Nature of the test: inhibition of BCRP-mediated JC-1 efflux – Ig-MXP3 cells, flow cytometry, set 2, dose response (AID 504566).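 Further: flow cytometry median green fluorescence of retained JC-1 dye; potency of efflux pump inhibition measured as rising substrate retention.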 It is filed as functional. Conditions: read-out: EC50_MICROM_. Background: In flow cytometry, cells or beads pass a laser one at a time.
In test [13] the target is Heat shock protein HSP 90-alpha (Homo sapiens, UniProt P07900). The format is functional, organism-based.
Test [14] deals with T5, ATP-dependent translocase ABCB1. Nature of the test: P-gp JC-1 efflux blockade concentration-response – Jurkat-DNR cells, flow cytometry, set 2, dose response (AID 504569).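 Further: potency of pump inhibitors that raise cellular JC-1 green fluorescence up to the nicardipine level.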 Conditions: read-out: EC50_MICROM_. The format is functional.
The nature of test [15]: Counterscreen for inhibitors of Trypanosoma brucei methionyl tRNA synthetase (MetRS): Luminescence-based cell-based high throughput dose response assay to identify compounds that are cytotoxic to Jurkat human T lymphocyte cells. It is filed as functional.
Test [16] addresses T6, Methionyl-tRNA synthetase, putative (Trypanosoma brucei brucei, UniProt Q38C91).
T6 sequence (Q38C91 whole entry): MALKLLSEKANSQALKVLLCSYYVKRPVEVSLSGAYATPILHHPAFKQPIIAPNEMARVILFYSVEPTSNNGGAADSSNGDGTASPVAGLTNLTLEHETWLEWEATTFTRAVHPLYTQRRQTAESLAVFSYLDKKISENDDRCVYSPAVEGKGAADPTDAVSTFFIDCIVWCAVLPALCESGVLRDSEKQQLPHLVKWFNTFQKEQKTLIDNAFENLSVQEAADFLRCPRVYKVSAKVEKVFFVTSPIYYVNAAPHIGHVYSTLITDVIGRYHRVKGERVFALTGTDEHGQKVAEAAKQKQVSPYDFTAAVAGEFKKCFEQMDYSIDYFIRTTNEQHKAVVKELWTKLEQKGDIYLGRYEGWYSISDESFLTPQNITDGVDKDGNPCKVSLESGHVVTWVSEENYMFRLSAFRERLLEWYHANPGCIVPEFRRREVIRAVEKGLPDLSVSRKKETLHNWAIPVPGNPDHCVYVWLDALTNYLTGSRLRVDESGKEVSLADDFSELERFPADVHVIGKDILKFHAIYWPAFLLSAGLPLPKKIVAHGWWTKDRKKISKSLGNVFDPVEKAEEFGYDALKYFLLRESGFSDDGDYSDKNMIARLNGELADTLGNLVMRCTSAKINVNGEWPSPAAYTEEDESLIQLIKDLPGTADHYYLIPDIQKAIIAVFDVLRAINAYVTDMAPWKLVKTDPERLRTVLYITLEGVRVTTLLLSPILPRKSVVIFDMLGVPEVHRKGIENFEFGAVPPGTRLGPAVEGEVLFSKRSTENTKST
It is filed as functional, Trypanosoma brucei brucei strain 927/4 GUTat10.1.

The nature of test [17]: viability of uninfected HEp-2 cells – cell-based, HTS, cytotoxicity control for RSV inhibitor project, dose response (AID 2410). It is filed as functional. Conditions: human respiratory syncytial virus.
The target of test [18] is T6, Methionyl-tRNA synthetase, putative. The format is functional, Trypanosoma brucei brucei strain 927/4 GUTat10.1. The source holds these as a separate data set.
For test [19], the target named is T7, Rac GTPase-activating protein 1 (Homo sapiens, UniProt Q9H0H5).
T7 sequence (Q9H0H5 whole entry): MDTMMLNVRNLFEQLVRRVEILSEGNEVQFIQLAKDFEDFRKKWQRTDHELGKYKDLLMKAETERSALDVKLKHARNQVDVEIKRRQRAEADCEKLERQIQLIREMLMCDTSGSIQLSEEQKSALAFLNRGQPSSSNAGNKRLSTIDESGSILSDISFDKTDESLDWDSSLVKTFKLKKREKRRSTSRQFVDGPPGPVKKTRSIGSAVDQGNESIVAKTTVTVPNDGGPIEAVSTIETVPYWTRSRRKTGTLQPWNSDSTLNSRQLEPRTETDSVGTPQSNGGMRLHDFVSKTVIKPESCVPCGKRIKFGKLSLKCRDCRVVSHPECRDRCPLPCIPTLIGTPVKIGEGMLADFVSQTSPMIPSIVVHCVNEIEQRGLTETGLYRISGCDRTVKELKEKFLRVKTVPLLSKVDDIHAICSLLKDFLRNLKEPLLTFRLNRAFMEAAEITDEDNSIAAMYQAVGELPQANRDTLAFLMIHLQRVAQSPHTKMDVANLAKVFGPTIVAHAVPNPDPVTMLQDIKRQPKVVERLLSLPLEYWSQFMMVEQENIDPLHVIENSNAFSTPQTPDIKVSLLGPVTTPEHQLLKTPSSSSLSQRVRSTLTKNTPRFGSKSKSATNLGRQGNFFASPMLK
Nature of the test: blockers of MgcRacGAP-driven Rac1 GTP hydrolysis – biochemical, ADP Hunter fluorescence, primary and confirmatory, confirmation (AID 624330). It is filed as functional.

T5 sequence (P08183 whole entry): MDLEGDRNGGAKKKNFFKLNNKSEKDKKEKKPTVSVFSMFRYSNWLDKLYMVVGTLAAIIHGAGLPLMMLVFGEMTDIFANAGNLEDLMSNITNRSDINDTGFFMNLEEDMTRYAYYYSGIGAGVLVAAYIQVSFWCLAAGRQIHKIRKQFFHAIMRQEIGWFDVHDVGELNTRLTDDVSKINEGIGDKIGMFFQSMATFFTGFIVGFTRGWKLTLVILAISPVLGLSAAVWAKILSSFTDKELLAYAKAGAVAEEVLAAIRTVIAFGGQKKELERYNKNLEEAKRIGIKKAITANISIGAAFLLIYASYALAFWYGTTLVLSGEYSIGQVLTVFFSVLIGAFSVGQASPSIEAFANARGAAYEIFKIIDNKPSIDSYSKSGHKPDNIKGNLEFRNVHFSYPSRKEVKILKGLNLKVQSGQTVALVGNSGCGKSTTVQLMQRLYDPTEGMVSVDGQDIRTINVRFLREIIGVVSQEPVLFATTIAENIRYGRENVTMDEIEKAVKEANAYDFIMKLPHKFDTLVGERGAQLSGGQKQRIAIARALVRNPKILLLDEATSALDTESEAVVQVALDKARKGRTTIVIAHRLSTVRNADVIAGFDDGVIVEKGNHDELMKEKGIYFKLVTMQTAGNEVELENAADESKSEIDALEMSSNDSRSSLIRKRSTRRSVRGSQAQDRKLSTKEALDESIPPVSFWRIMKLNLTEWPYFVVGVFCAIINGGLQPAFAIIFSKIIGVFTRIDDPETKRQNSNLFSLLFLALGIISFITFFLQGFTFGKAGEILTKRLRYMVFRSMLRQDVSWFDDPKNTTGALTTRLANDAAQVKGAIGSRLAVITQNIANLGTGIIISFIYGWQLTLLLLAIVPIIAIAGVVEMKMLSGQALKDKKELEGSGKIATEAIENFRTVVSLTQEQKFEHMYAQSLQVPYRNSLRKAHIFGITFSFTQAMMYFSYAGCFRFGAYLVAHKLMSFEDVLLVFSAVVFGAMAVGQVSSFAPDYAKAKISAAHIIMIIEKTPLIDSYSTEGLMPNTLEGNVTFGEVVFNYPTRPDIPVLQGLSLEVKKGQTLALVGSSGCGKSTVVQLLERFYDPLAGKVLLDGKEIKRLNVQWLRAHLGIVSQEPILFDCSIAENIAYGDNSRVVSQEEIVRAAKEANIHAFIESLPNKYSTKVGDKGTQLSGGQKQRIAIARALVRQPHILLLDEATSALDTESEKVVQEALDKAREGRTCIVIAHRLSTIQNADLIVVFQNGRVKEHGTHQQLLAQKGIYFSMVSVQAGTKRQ
Nuclear receptor subfamily 5 group A member 2, sequence (O00482 whole entry): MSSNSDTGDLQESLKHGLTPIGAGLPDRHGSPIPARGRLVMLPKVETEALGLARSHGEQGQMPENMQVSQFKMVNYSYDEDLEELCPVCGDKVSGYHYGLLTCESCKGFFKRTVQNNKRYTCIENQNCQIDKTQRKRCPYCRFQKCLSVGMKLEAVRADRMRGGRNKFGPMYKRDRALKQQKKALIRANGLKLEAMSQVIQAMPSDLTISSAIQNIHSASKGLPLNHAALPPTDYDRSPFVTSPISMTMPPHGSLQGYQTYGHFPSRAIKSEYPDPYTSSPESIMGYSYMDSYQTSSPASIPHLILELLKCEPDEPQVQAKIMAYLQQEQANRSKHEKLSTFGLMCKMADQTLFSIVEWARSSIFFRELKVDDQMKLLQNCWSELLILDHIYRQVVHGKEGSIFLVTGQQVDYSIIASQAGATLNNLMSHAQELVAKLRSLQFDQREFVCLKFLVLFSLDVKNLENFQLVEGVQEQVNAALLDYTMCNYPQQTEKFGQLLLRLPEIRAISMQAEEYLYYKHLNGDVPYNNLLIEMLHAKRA
Steroidogenic factor 1, sequence (Q13285 whole entry): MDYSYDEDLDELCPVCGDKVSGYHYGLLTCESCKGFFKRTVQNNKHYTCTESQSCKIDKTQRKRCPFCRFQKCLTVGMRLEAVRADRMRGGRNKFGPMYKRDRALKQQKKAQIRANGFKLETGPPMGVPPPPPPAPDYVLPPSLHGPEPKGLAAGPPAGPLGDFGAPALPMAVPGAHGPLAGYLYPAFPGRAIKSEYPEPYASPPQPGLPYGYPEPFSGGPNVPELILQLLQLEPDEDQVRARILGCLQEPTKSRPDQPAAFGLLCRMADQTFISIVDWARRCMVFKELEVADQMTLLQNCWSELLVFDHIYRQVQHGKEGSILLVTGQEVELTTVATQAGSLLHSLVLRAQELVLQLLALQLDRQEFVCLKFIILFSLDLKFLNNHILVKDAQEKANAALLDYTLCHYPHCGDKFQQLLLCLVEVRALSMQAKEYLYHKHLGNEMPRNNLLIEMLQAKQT

For `O=C(CSc1nncc(O)n1)Nc1cccc([N+](=O)[O-])c1`, the IC50 in test [1] was 3.98 µM (active); in test [2] it was 13.7 µM (inactive); at Steroidogenic factor 1 it was 3.98 µM (active).

On to `COc1ccc(/C=C2\SC(=S)N(C(Cc3ccccc3)C(=O)O)C2=O)cc1` (stereo not drawn), for which the EC50 in test [3] is 34.8 µM (active); in [5], 4.73 µM (active). In addition, the IC50 is > 20 µM (inactive) in test [4] and 0.545 µM (active) in [6].

Turning to `CC(=O)Nc1ncc(Cc2cc(Cl)ccc2Cl)s1`, the IC50 in [1] is 1.33 µM (active); in test [2], 35.9 µM (inactive); at Steroidogenic factor 1 it was 2.14 µM (active).

As for `Cc1ccc(-n2nc3c(c2NC(=O)/C=C\c2ccc4c(c2)OCO4)CSC3)cc1`, the IC50 in test [7] was 20.4 µM (active); in [8], 6.06 µM (active).

On to `CCC(C)Nc1nc(-c2ccc3c(c2)NC(=O)CO3)cs1` (stereo not drawn), for which the IC50 in test [9] is 63.3 µM (inactive); in [10], 10.5 µM (active).

For the molecule `Cc1ccc(NC(=O)CNC(=O)c2cccc(C)c2)nc1`, the IC50 in test [11] is 3.75 µM (active).

On to `O=S(=O)(NC1CCCC1)c1ccc(S(=O)(=O)N2CCc3ccccc32)cc1`, for which the IC50 in [11] is 2.47 µM (active).

The term AC50 denotes the midpoint of the concentration-response curve, whichever way the signal moves. Turning to `Cc1cc(N2CCN(C(=O)c3ccco3)CC2)n2nc(C)c(-c3ccccc3)c2n1`, the EC50 in test [12] is 7.22 µM (active); in test [14], 3.25 µM (inactive). Besides, the AC50 in [13] is 7.93 µM (active).

In the case of `Cc1cccc(-c2nc(NCCCN3CCOCC3)c3ccccc3n2)c1`, the IC50 in [9] was 7.12 µM (active); in test [10], 22.6 µM (inactive).

A word on the CC50: it is the concentration that lowers cell viability or growth by half. For `O=C(NCc1nc2ccccc2[nH]1)C1=C[C@H](c2csc3ccccc23)C[C@H](OCc2ccc(CO)cc2)O1`, the IC50 in test [15] was 47.7 µM (inactive); in [16], 3.54 µM (active); in test [18], 1.58 µM (active). Besides, in test [17], the CC50 is 41.1 µM (active).

On to `COc1ccc(C)cc1NCc1cccc(OC)c1OC`, for which the EC50 in test [3] was > 53 µM (inactive). Further, the IC50 in test [19] is 41.7 µM (active); in [4] it was > 20 µM (inactive); in test [6] it was 39.6 µM (active).

For `COC(=O)[C@H](CC(C)C)N1Cc2cc(OC)cc(OC)c2-c2ccccc2S1(=O)=O`, the IC50 is 55.6 µM (active) in [7] and 23.5 µM (active) in test [8].

Regarding `COc1ccc(C(=O)N2CCN(c3cc(-c4ccccc4)nc4cc(-c5cccc(Cl)c5)nn34)CC2)cc1`, the EC50 in test [12] is 2.04 µM (active); in [14], 3.04 µM (active).
